Experimental data reported in PubChem BioAssay AID330 (DTP/NCI, 2004).
Inconclusive results and toxic doses are left out. The calls were made as follows: active = survival T/C of 150% or more; inactive = T/C below 125% in these data.

Tested on: P388 leukemia ip, CD2F1 mice, survival T/C
Test: NCI In Vivo Anticancer Drug Screen. Data for tumor model P388 Leukemia (intraperitoneal) in CD2F1 (CDF1) mice
Details: endpoint: median survival time, higher = longer survival
Method in brief: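 Mice carrying the transplanted tumor received test compound or vehicle. Survival was recorded in each group, and the value is the treated-group measurement divided by that of the vehicle-treated control group.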

[1] = dose: 12.5 mg/kg/injection, schedule: Q01DX009 (ip), vehicle: other
[2] = dose: 25.0 mg/kg/injection, schedule: Q01DX009 (ip), vehicle: other
[3] = dose: 50.0 mg/kg/injection, schedule: Q01DX009 (ip), vehicle: other
[4] = dose: 100.0 mg/kg/injection, schedule: Q01DX009 (ip), vehicle: other

Measured: T/C

CCOC(=O)CN1C(=S)N(c2ccc(C)cc2)C(=Nc2ccc(C)cc2)C1=Nc1ccc(C)cc1
inactive: dose: 50.0 mg/kg/injection, schedule: Q01DX005 (ip), vehicle: Klucel + Tween-80 96 % of control | dose: 100.0 mg/kg/injection, schedule: Q01DX005 (ip), vehicle: Klucel + Tween-80 91 % of control | dose: 200.0 mg/kg/injection, schedule: Q01DX005 (ip), vehicle: Klucel + Tween-80 90 % of control

NC(=S)N/N=C\c1nc2ccccc2c2ccccc12
inactive: dose: 50.0 mg/kg/injection, schedule: Q04DX002 (ip), vehicle: Klucel (hydroxypropylcellulose) (HPC) 99 % of control | dose: 100.0 mg/kg/injection, schedule: Q04DX002 (ip), vehicle: Klucel (hydroxypropylcellulose) (HPC) 95 % of control | dose: 200.0 mg/kg/injection, schedule: Q04DX002 (ip), vehicle: Klucel (hydroxypropylcellulose) (HPC) 94 % of control

O=NN(CCSCCO)C(=O)NC1CCCCC1
inactive: dose: 6.25 mg/kg/injection, schedule: Q01DX009 (ip), vehicle: water 101 % of control | dose: 12.5 mg/kg/injection, schedule: Q01DX009 (ip), vehicle: water 100 % of control | dose: 25.0 mg/kg/injection, schedule: Q01DX009 (ip), vehicle: water 102 % of control | dose: 50.0 mg/kg/injection, schedule: Q01DX009 (ip), vehicle: water 109 % of control | dose: 100.0 mg/kg/injection, schedule: Q01DX009 (ip), vehicle: water 110 % of control | dose: 200.0 mg/kg/injection, schedule: Q01DX009 (ip), vehicle: water 107 % of control

COC(=O)CNC(=O)C(Cc1c[nH]c2ccccc12)NC(=O)OC(C)(C)C (configuration not stated)
inactive: [1] 96 % of control | [2] 89 % of control | [3] 89 % of control | [4] 90 % of control | dose: 200.0 mg/kg/injection, schedule: Q01DX009 (ip), vehicle: other 97 % of control

Nc1cnc2nc(N)[nH]c(=O)c2c1
inactive: dose: 100.0 mg/kg/injection, schedule: Q01DX009 (ip), vehicle: saline sonified 120 % of control | dose: 200.0 mg/kg/injection, schedule: Q01DX009 (ip), vehicle: saline sonified 110 % of control | dose: 400.0 mg/kg/injection, schedule: Q01DX009 (ip), vehicle: saline sonified 105 % of control

CCNCC1c2ccccc2-c2nc3ccccc3nc2-c2ccccc21
inactive: dose: 100.0 mg/kg/injection, schedule: Q04DX002 (ip), vehicle: saline with Tween-80 102 % of control | dose: 200.0 mg/kg/injection, schedule: Q04DX002 (ip), vehicle: saline with Tween-80 98 % of control

COC(=O)C12CC=CC1C(C)CC2 (configuration not stated)
inactive: dose: 75.0 mg/kg/injection, schedule: Q04DX002 (ip), vehicle: Klucel (hydroxypropylcellulose) (HPC) 100 % of control | dose: 150.0 mg/kg/injection, schedule: Q04DX002 (ip), vehicle: Klucel (hydroxypropylcellulose) (HPC) 100 % of control | dose: 300.0 mg/kg/injection, schedule: Q04DX002 (ip), vehicle: Klucel (hydroxypropylcellulose) (HPC) 100 % of control

Cc1cc(=O)oc2cc(OC(=O)C(CCCCN)NC(=O)OCc3ccccc3)ccc12 (configuration not stated)
inactive: dose: 6.25 mg/kg/injection, schedule: Q01DX009 (ip), vehicle: other 101 % of control | [1] 99 % of control | [2] 121 % of control | [3] 114 % of control | [4] 117 % of control

CN(C)CC(CN(C)C)C(=O)/C=C/c1ccccc1
inactive: dose: 1.56 mg/kg/injection, schedule: Q01DX005 (ip), vehicle: saline 99 % of control | dose: 3.12 mg/kg/injection, schedule: Q01DX005 (ip), vehicle: saline 107 % of control
